≈ marks a conversion by molar mass, not a printed value.
The molecules below were run on Clostridium difficile (Isolate ID ATCC 9689) (assay: Bacterial Assay: Determination of Antibacterial Activity (MIC, broth microdilution or agar dilution)). Conditions: Clostridioides difficile, ATCC9689, 48 h, read-out: C. difficile MIC Activity Range.
Format: cell-based
Protocol: Bacterial Assay: Determination of Antibacterial Activity Compounds of the invention were tested for antimicrobial activity by susceptibility testing in liquid or on solid media. Minimum inhibitory concentrations (MICs) for compounds against each strain were determined by the broth microdilution or agar dilution method according to the guidelines of the Clinical Laboratories and Standards Institute, formerly the National Committee for Clinical Laboratory Standards (Clinical Laboratories and Standards Institute. Methods for Dilution Antimicrobial Susceptibility Tests for Bacteria That Grow Anaerobically; Approved Standard-Seventh Edition. Document M11-A7, CLSI, Wayne, Pa., 2007, Clinical Laboratories and Standards Institute). Briefly MICs were determined by visible inspection after 48 hours of growth in the presence of compounds, cultures were grown at 37° C. in anaerobic gas packs using reinforced clostridial medium supplemented with 0.1% defribrinated horse blood. The bacterial strains tested include C. difficile (Clostridium difficile (Isolate ID ATCC 9689)) (Table 2) and two drug resistant clinical isolates (Clostridium difficile (Isolate ID BI-9) and Clostridium difficile (Isolate ID 027-01) (Table 3).
MICs were determined to be within the activity ranges “A” activity≦1.01 μg/mL; “B” activity>1.0 μg/mL-4.0 μg/mL; “C” activity>4.0 μg/mL-16 μg/mL

Compound | MIC [µg/mL]
Cn1ccc(CNC(=O)OCC(Oc2ccc(F)c(C(N)=O)c2F)c2nc(-c3ccc(C(F)(F)F)cc3)c(Br)o2)n1 (centres unmarked) [Compound 72, 2-{5-bromo-4-[4-(trifluoromethyl)phenyl]-1,3-oxazol-2-yl}-2-(3-carbamoyl-2,4-difluorophenoxy)ethyl [(1-methyl-1H-pyrazol-3-yl)methyl]carbamate] | < 1.01
Cn1nccc1CNC(=O)OCC(Oc1ccc(F)c(C(N)=O)c1F)c1nc(-c2ccc(C(F)(F)F)cc2)c(Br)o1 (centres unmarked) [Compound 73, 2-{5-bromo-4-[4-(trifluoromethyl)phenyl]-1,3-oxazol-2-yl}-2-(3-carbamoyl-2,4-difluorophenoxy)ethyl [(1-methyl-1H-pyrazo1-5-yl)methyl]carbamate] | < 1.01
CN(Cc1ccncn1)C(=O)OCC(Oc1ccc(F)c(C(N)=O)c1F)c1nc(-c2ccc(C(F)(F)F)cc2)c(Br)o1 (centres unmarked) [Compound 75, 2-{5-bromo-4-[4-(trifluoromethyl)phenyl]-1,3-oxazol-2-yl}-2-(3-carbamoyl-2,4-difluorophenoxy)ethyl methyl(pyrimidin-4-ylmethyl)carbamate] | 1 to 4 (≈ 1.52 to 6.09 µM)
Cn1cc(CNC(=O)OCC(Oc2ccc(F)c(C(N)=O)c2F)c2nc(-c3ccc(C(F)(F)F)cc3)c(Br)o2)cn1 (centres unmarked) [Compound 76, 2-{5-bromo-4-[4-(trifluoromethyl)phenyl]-1,3-oxazol-2-yl}-2-(3-carbamoyl-2,4-difluorophenoxy)ethyl [(1-methyl-1H-pyrazol-4-yl)methyl]carbamate] | < 1.01
Cc1cccc(CNC(=O)OCC(Oc2ccc(F)c(C(N)=O)c2F)c2nc(-c3ccc(C(F)(F)F)cc3)c(Br)o2)n1 (centres unmarked) [Compound 77, 2-{5-bromo-4-[4-(trifluoromethyl)phenyl]-1,3-oxazol-2-yl}-2-(3-carbamoyl-2,4-difluorophenoxy)ethyl [(6-methylpyridin-2-yl)methyl]carbamate] | 1 to 4 (≈ 1.53 to 6.1 µM)
Cc1cc(CNC(=O)OCC(Oc2ccc(F)c(C(N)=O)c2F)c2nc(-c3ccc(C(F)(F)F)cc3)c(Br)o2)ccn1 (centres unmarked) [Compound 78, 2-{5-bromo-4-[4-(trifluoromethyl)phenyl]-1,3-oxazol-2-yl}-2-(3-carbamoyl-2,4-difluorophenoxy)ethyl [(2-methylpyridin-4-yl)methyl]carbamate] | < 1.01
Cn1ccnc1CNC(=O)OCC(Oc1ccc(F)c(C(N)=O)c1F)c1nc(-c2ccc(C(F)(F)F)cc2)c(Br)o1 (centres unmarked) [Compound 79, 2-{5-bromo-4-[4-(trifluoromethyl)phenyl]-1,3-oxazol-2-yl}-2-(3-carbamoyl-2,4-difluorophenoxy)ethyl [(1-methyl-1H-imidazol-2-yl)methyl]carbamate] | 4 to 16 (≈ 6.21 to 24.8 µM)
Cc1nn(C)cc1CNC(=O)OCC(Oc1ccc(F)c(C(N)=O)c1F)c1nc(-c2ccc(C(F)(F)F)cc2)c(Br)o1 (centres unmarked) [Compound 81, 2-{5-bromo-4-[4-(trifluoromethyl)phenyl]-1,3-oxazol-2-yl}-2-(3-carbamoyl-2,4-difluorophenoxy)ethyl [(1,3-dimethyl-1H-pyrazol-4-yl)methyl]carbamate] | < 1.01
Cc1c(CNC(=O)OCC(Oc2ccc(F)c(C(N)=O)c2F)c2nc(-c3ccc(C(F)(F)F)cc3)c(Br)o2)cnn1C (centres unmarked) [Compound 82, 2-{5-bromo-4-[4-(trifluoromethyl)phenyl]-1,3-oxazol-2-yl}-2-(3-carbamoyl-2,4-difluorophenoxy)ethyl [(1,5-dimethyl-1H-pyrazol-4-yl)methyl]carbamate] | < 1.01
COc1ccc(CNC(=O)OCC(Oc2ccc(F)c(C(N)=O)c2F)c2nc(-c3ccc(C(F)(F)F)cc3)c(Br)o2)cn1 (centres unmarked) [Compound 83, 2-{5-bromo-4-[4-(trifluoromethyl)phenyl]-1,3-oxazol-2-yl}-2-(3-carbamoyl-2,4-difluorophenoxy)ethyl [(6-methoxypyridin-3-yl)methyl]carbamate] | < 1.01
COc1cc(CNC(=O)OCC(Oc2ccc(F)c(C(N)=O)c2F)c2nc(-c3ccc(C(F)(F)F)cc3)c(Br)o2)ccn1 (centres unmarked) [Compound 84, 2-{5-bromo-4-[4-(trifluoromethyl)phenyl]-1,3-oxazol-2-yl}-2-(3-carbamoyl-2,4-difluorophenoxy)ethyl [(2-methoxypyridin-4-yl)methyl]carbamate] | < 1.01
